Values belong to the compound of their own block, whether it stands above or below them.
Experiments:
[1] = blood pH (7.2); cited from earlier work
[2] = intramuscular administration; Friton 2003; cited from earlier work
[3] = type: physicochemical
Text: Thus the long term stability of PNT with triacetin (or other oily vehicles) is highly unexpected.
After one month in accelerated stability the components of the composition appeared to degrade rapidly with a resulting colour change from an off-white to a dark yellow with dark brown sludge forming. The degradation components appeared to include a gas, resulting in the container swelling from the resultant pressure. Accordingly, the formulations described in CN 1517090 are not known to be storage stable.

[4] = at 20° C.; cited from earlier work

Compound: CCN(CC)CCOC(=O)[C@@H]1N2C(=O)[C@@H](NC(=O)Cc3ccccc3)[C@H]2SC1(C)C.I [penethamate hydroiodide]
active drug present in its hydrolysed form (benzylpenicillin) at equilibrium [1]: 91.8%
time to peak serum levels (measured as dissociated penicillin G) after injection [2]: 3.76 h

chemical stability on storage [3]: chemically unstable on storage
Compound: CC1(C)S[C@@H]2[C@H](NC(=O)Cc3ccccc3)C(=O)N2[C@H]1C(=O)O [benzylpenicillin]

Compound: CC(=O)OCC(COC(C)=O)OC(C)=O [Triacetin]
viscosity [4]: approximately 23 mPas

chemical stability of composition [3]: chemically unstable
chemical stability on storage [3]: chemically unstable on storage
Compound: CC1(C)S[C@@H]2[C@H](NC(=O)Cc3ccccc3)C(=O)N2[C@H]1C(=O)O.CCN(CC)CCOC(=O)c1ccc(N)cc1 [procaine penicillin]

Reference: patent US10376585B2, “Injectable antibiotic formulations and their methods of use” (BAYER NEW ZEALAND LTD, priority 2012, dated 2019)
